Assay results from paper PMC4689619 (Organic & biomolecular chemistry, 2016).
Like-named read-outs stand apart in the source and are kept apart here.

Tests used:
[1] = biological target: oncogenic mutant K-Ras (mGFP-K-Ras G12V) (Homo sapiens, UniProt P01116, G12V); type: cell-based, canine; conditions: MDCK cells stably expressing mGFP-KRasG12V and mCherry-CAAX, 48 h; for IC50: read-out: IC50 (concentration needed for 50% PM mislocalisation)
SW620 cells = experiment: resazurin cell viability assay, SW620; type: cell-based, human
SW620 Ad300 cells = experiment: cells; type: cell-based, human
P-glycoprotein (P-gp) = P-glycoprotein (P-gp) (Homo sapiens, UniProt P08183); experiment: calcein AM flow cytometry assay in P-gp over-expressing SW620 Ad300 cells; conditions: 20 μM
[2] = read-out: SW620 IC50, colon cancer cell line SW620, resazurin
[3] = read-out: SW620 Ad300 IC50, P-gp over-expressing SW620 Ad300, resazurin

Chain of P-glycoprotein (P-gp) (P08183 whole entry): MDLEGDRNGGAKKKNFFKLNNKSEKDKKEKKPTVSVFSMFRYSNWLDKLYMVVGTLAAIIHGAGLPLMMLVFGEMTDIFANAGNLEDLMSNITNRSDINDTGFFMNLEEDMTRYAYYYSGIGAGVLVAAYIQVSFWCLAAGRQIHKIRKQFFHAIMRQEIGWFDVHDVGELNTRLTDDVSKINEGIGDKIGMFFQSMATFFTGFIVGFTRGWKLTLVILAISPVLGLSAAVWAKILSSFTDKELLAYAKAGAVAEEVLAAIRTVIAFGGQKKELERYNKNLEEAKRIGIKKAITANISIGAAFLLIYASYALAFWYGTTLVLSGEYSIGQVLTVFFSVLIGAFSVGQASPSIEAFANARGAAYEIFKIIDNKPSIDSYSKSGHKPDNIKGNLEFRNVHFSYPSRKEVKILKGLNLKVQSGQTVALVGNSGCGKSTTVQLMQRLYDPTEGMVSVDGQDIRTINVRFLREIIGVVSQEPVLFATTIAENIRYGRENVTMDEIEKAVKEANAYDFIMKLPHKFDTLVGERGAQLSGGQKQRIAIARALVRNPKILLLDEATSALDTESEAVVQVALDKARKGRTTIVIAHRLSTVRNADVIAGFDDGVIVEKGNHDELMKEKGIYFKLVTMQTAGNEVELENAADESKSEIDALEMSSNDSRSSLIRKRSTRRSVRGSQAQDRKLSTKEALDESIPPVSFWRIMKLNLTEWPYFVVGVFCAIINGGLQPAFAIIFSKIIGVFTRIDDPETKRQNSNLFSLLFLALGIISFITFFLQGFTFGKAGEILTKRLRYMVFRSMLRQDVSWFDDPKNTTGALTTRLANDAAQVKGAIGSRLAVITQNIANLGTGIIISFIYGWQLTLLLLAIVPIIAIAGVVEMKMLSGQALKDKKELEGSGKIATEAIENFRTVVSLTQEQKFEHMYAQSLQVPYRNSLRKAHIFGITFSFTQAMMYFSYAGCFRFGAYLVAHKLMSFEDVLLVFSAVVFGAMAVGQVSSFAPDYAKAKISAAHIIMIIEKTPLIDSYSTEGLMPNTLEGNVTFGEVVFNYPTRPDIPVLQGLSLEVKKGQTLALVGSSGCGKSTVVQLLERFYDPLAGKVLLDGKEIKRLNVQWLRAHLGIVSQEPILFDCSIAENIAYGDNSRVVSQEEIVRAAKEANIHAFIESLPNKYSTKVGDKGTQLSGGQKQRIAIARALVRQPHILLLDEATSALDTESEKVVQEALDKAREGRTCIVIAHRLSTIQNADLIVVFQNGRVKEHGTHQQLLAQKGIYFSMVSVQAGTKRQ

Compound | Emax (highest Manders coefficient, maximum extent of K-Ras PM mislocalisation) [1] | IC50 [1] [µM] | IC50 (SW620 cells; [2]) [µM] | FR (fold resistance, ratio IC50 SW620Ad300 / IC50 SW620) (SW620 Ad300 cells) | IC50 (SW620 Ad300 cells; [3]) [µM] | IC50 (SW620 cells; Homo sapiens, SW-620, read-out: SW620 IC50) [µM] | IC50 (SW620 Ad300 cells; Homo sapiens, SW620/AD300, read-out: SW620 Ad300 IC50) [µM] | FAR (fluorescence arbitrary ratio), calcein fluorescence intensity vs PBS (P-glycoprotein (P-gp)) | FR (fold resistance) with co-administration of verapamil (SW620 Ad300 cells; co-administration of P-gp inhibitor verapamil)
CC[C@H]1/C=C/C=C/C[C@@H](C)[C@H](O)[C@@](C)(O)C(=O)[C@@H](C)[C@H](O)[C@@H](C)C(=O)[C@@H](C)[C@H](O)[C@@H](C)/C=C/C(=O)O[C@@H]2[C@H](C)[C@H](CC1)O[C@@]1(O[C@@H](C[C@@H](C)O)[C@@H](C)CC1=O)[C@H]2C [compound 2, oligomycin B] | 0.67 ± 0.02 | 0.00351 ± 0.00016 | 17 ± 0.6 | 0.76 | 12.9 ± 1.3 | – | – | – | –
CC[C@@H]1C=CC=CC[C@H](C)[C@@H](O)[C@@H](C)C(=O)[C@H](C)[C@@H](O)[C@H](C)C(=O)[C@H](C)[C@@H](O)[C@H](C)C=CC(=O)O[C@H]2[C@@H](C)[C@@H](CC1)O[C@@]1(CC[C@@H](C)[C@@H](C[C@H](C)O)O1)[C@@H]2C [compound 3, oligomycin C] | 0.72 ± 0.03 | – | – | 1.1 | – | 19.8 ± 1.2 | 22.5 ± 3.8 | – | –
CC[C@H]1/C=C/C=C/C[C@@H](C)[C@H](O)[C@@](C)(O)C(=O)[C@@H](C)[C@H](O)[C@@H](C)C(=O)[C@@H](C)[C@H](O)[C@@H](C)/C=C/C(=O)O[C@H]2C[C@@]3(CC[C@H](C)[C@H](C[C@@H](C)O)O3)O[C@@H](CC1)[C@H]2C [compound 4, oligomycin D] | 0.72 ± 0.01 | 0.00349 ± 8e-05 | 36 ± 2.3 | 0.35 | 12.9 ± 1 | – | – | – | –
CC[C@H]1/C=C/C=C/C[C@@H](C)[C@H](O)[C@@](C)(O)C(=O)[C@@H](C)[C@H](O)[C@@H](C)C(=O)[C@@H](C)[C@H](O)[C@@H](C)/C=C/C(=O)O[C@@H]2[C@H](C)[C@H](CC1)O[C@@]1(O[C@@H](C[C@@H](C)O)[C@@H](C)CC1=O)[C@]2(C)O [compound 5, oligomycin E] | 0.73 ± 0.06 | 0.0049 ± 0.00064 | 7.1 ± 0.4 | 0.56 | 4 ± 0.8 | – | – | 48.2 | –
CC[C@H]1/C=C/C=C/C[C@@H](C)[C@H](O)[C@@](C)(O)C(=O)[C@@H](C)[C@H](O)[C@@H](C)C(=O)[C@@H](C)[C@H](O)[C@@H](C)/C=C/C(=O)O[C@@H]2[C@H](C)[C@H](C[C@H]1O)O[C@]1(CC[C@H](C)[C@H](C[C@@H](C)O)O1)[C@H]2C [compound 6, 21-hydroxy-oligomycin A] | 0.76 ± 0.04 | 0.00482 ± 0.0007 | 14.4 ± 0.6 | 0.82 | 11.8 ± 3.1 | – | – | – | –
CC[C@H]1/C=C/C=C/C[C@@H](C)[C@H](O)[C@H](C)C(=O)[C@@H](C)[C@H](O)[C@@H](C)C(=O)[C@@H](C)[C@H](O)[C@@H](C)/C=C/C(=O)O[C@@H]2[C@H](C)[C@H](C[C@H]1O)O[C@]1(CC[C@H](C)[C@H](C[C@@H](C)O)O1)[C@H]2C [compound 7, 21-hydroxy-oligomycin C] | 0.68 ± 0.01 | 0.0141 ± 0.00024 | 5.7 ± 0.9 | 0.54 | 3.1 ± 0.2 | – | – | – | –
CC[C@H]1/C=C/C=C/C[C@@H](CO)[C@H](O)[C@@](C)(O)C(=O)[C@@H](C)[C@H](O)[C@@H](C)C(=O)[C@@H](C)[C@H](O)[C@@H](C)/C=C/C(=O)O[C@@H]2[C@H](C)[C@H](CC1)O[C@@]1(O[C@@H](C[C@@H](C)O)[C@@H](C)CC1=O)[C@H]2C [compound 8, 40-hydroxy-oligomycin B] | 0.73 ± 0.05 | 0.00591 ± 0.00162 | 13.6 ± 0.4 | 1.2 | 16.4 ± 1.5 | – | – | – | –
COc1cccc2c1C(=O)c1c(O)c3c(c(O)c1C2=O)C[C@@](O)(C(=O)CO)C[C@@H]3O[C@H]1C[C@H](N)[C@H](O)[C@H](C)O1 [doxorubicin, reference compound] | – | – | – | 22 | – | – | – | – | 2.4
oligomycin A [compound 1] | 0.75 ± 0.02 | – | 14.6 ± 2.5 | 0.27 | 4 ± 1.1 | – | – | – | –
